Earlier results as cited in patent US11478522B2, “Synergistic herbal compositions with prebiotic properties for treatment of acne” (KAMEDIS LTD., priority 2016, dated 2022).

Assays:
enzyme 11β-HSD1 = enzyme 11β-HSD1 (Homo sapiens, UniProt P28845)
NLRP3 inflammasome = NLRP3 inflammasome (Homo sapiens, UniProt Q96P20)
Chain of NLRP3 inflammasome (Q96P20 whole entry): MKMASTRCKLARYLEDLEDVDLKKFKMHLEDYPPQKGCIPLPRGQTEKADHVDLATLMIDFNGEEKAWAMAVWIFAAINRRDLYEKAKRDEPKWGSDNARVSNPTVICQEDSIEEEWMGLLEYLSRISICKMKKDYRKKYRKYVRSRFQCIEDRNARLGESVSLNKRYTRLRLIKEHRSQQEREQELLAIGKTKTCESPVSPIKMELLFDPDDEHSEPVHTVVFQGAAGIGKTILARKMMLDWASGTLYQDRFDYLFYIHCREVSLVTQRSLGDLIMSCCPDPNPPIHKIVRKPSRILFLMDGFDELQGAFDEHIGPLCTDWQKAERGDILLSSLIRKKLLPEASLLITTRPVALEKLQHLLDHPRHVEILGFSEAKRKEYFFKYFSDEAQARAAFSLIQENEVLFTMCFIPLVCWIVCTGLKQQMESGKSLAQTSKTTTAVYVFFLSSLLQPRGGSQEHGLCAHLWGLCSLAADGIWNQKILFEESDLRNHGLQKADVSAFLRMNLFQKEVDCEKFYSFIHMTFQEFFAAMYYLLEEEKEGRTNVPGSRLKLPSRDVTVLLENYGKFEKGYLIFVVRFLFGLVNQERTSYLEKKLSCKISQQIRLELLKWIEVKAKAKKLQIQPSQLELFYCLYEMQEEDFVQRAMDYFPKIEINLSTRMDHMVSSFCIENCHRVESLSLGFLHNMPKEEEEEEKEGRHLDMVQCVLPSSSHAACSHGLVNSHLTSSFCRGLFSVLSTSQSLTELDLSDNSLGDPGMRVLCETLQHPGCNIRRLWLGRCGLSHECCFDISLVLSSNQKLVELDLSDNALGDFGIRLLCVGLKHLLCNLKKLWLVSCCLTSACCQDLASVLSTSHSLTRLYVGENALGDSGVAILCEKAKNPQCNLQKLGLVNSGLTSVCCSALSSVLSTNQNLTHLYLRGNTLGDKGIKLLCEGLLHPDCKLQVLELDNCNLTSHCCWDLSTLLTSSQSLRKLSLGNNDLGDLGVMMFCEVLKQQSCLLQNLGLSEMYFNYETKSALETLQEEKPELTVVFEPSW

Chain of enzyme 11β-HSD1 (P28845 whole entry, species assumed): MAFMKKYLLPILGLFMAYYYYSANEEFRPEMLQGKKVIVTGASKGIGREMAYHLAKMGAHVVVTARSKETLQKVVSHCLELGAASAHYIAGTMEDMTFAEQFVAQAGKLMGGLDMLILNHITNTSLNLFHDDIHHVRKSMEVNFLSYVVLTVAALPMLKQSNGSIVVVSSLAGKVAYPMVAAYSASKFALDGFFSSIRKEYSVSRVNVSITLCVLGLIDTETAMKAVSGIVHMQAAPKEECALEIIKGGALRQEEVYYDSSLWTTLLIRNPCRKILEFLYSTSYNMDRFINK

Cc1cc(O)c2c(c1)C(=O)c1cc(O)cc(O)c1C2=O [emodin]
inhibition of the enzyme 11β-HSD1 (enzyme 11β-HSD1): effective and selective as inhibitors
NLRP3 inflammasome activation (NLRP3 inflammasome): attenuate NLRP3 inflammasome activation
